Results as given in patent US20220088144A1, “SGLT-2 INHIBITORS OR IL-1R ANTAGONISTS FOR REDUCTION OF HYPOGLYCAEMIA AFTER BARIATRIC SURGERY” (UNIVERSITÄTSSPITAL BASEL, priority 2019, published 2022).

Tests used:
[1] = system: patients after bariatric surgery with post-prandial hypoglycaemia; test: Liquid mixed-meal test after single dose: plasma glucose and glucose-requiring hypoglycaemic events; type: in vivo, human; details: for number of events (hypoglycemia requiring glucose rescue), estimate vs placebo: FIG. 5b, generalized linear additive mixed effect model; for glucose, estimate vs placebo: FIG. 5c, linear mixed effect model; for severity of hypoglycemic events / events requiring rescue glucose administration: pre-treatment vs placebo (7 of 12 patients on placebo), p=0.037; for glucose-requiring hypoglycaemic events (%): single dose before mixed meal, placebo 61.5%
Method: This study is a placebo controlled, double-blind, randomized, cross-over proof-of-concept study. The study consists of a screening visit and three study dates that need to have a minimum interval between the dates of four days and maximum of two weeks. Ideally, all three study dates are performed within 14 days allowing the usage of one single flash glucose monitoring system sensor (Freestyle Libre®, Abbott) for the entire period. The screening visit is about 90 min. Each study day lasts 6.5 hours and consists of the same schedule. If the subject agrees to use a glucose flash monitoring system, the sensor is installed the afternoon before study day 1 and the subject is instructed in the use of the system.
(§1) The 12 subjects were randomly assigned into six groups consisting of two subjects receiving study medication in a double-blind, crossed-over manner as outlined in FIG. 2. Patients need to be sober at least eight hours before ingestion of mixed-meal. To ensure that fasting period is not too long, patients receive a small late evening meal consisting of 4 DarVida Natural Crackers as well as 3 Sinergy® drops (see Appendix for specific contents) or are alternatively pleased to have their dinner at around 10 pm. Treatment consists of a single subcutaneous injection of 100 mg Anakinra (Kineret®) or matched placebo three hours before ingestion of the mixed-meal and of a single oral tablet of 10 mg of empagliflozin (Jardiance®) or matched placebo two hours before mixed-meal at each study day. Patients were randomised to receive in different sequences either (1) anakinra and an oral placebo to empagliflozin, (2) empagliflozin and a subcutaneous placebo (0.67 ml 0.9% saline) to anakinra or (3) double placebo. Participants, investigators and study nurses were blinded to the study drug.
Between the study drug application questionnaires concerning dumping symptoms were answered. Regular measurement of vital parameters, blood samples and hypoglycaemia assessments were performed as outlined in FIG. 1. After ingestion of the liquid mixed-meal subjects had to rest in supine position (at least 45°). One subject was not able to ingest the full specified liquid mixed meal (carbohydrate load of 40 g instead of 60 g) on the first study day and thereafter received the same portion of liquid mixed meal on subsequent study days.
In case of symptomatic hypoglycaemia before the prespecified next laboratory control immediate glucose measurements with Freestyle Libre® and POCT respectively were performed and in case of hypoglycemic values (<3.0 mmol/l) laboratory samples were drawn and glucose (10 g) was given intravenously. Samples were named according to the exact timepoint and the following pre-specified samples were taken according to the study schedule. If patients were not symptomatic glucose (10 g) was given intravenously only in case of POCT glucose values below 2.5 mmol/l.
Blood glucose measurements regularly took place and an inserted catheter in case of hypoglycaemia was adjusted at the beginning of each study date. In case of a symptomatic decrease of blood glucose levels in symptomatic patients below 2.5 mmol/l, counter-regulatory actions (e.g. 100 ml of 10% glucose) were initiated after taking the blood sample panel.
The primary outcome in this study is the change of post-prandial hypoglycaemia after treatment with empagliflozin (Jardiance®) or anakinra (Kineret®) compared to placebo. This was assessed by blood glucose measurements (capillary POCT measurements and plasma glucose) as well as clinical scoring systems (Edinburgh Hypoglycaemia Scale (Deary et al. Diabetologia 1993; 36(8): 771-7), Mixed-Meal-Test (Wiesli et al. Eur J Endocrinol 2005; 152(4): 605-10.) Stanford sleepiness scale).
At each study day the same schedule took place. […]

[2] = system: patients after bariatric surgery with post-prandial hypoglycaemia; test: Mixed-meal test: insulin, c-peptide, GLP-1, glucagon, insulin secretion and sensitivity indices; type: in vivo, human; details: for insulin AUC, estimate vs placebo: FIG. 5e; for insulin AUC, estimate vs placebo / c-peptide, estimate vs placebo / insulin, estimate vs placebo / insulin secretion index, effect estimate vs placebo: linear mixed effect model; for c-peptide, estimate vs placebo: FIG. 5f; for c-peptide, estimate vs placebo / insulin, estimate vs placebo: log-transformed outcome; for insulin, estimate vs placebo: FIG. 5d; for insulin secretion index, effect estimate vs placebo: placebo average 108.0 pmol/mmol; for Whole body insulin sensitivity index / Insulin secretion index: median, n=12; for Whole body insulin sensitivity index: placebo 38.0, single dose before mixed meal; for Insulin secretion index: placebo 104.6, single 10 mg empagliflozin oral 2 h or 100 mg anakinra s.c. 3 h before mixed meal; for insulin secretion / insulin release and c-peptide secretion over time: vs placebo
Description: as §1
The secondary objectives are to evaluate whether treatment of empagliflozin (Jardiance®) or anakinra (Kineret®) have effects on the following aspects: • level of insulin secretion and sensitivity • levels of GLP-1, glucagon and C-peptide • levels of IL-6; IL-1Ra, CRP • scores in Edinburgh Hypoglycaemia Scale (clinical score for assessment of hypoglycemia), Stanford Sleepiness Scale (clinical score of assessment of sleepiness) as well as Sigstad Score (clinical score for early and late dumping symptoms) • Length of time and amount of glucose needed for restoring normoglycemia.
Insulin secretion was measured using standard insulin ELISA.
Statistical analysis for this proof-of-concept translational clinical trial was done on a per-protocol basis. Sample size was based on practical considerations due to the lack of pre-existing data for this intervention. All analyses are to be considered exploratory. Analysis of continuous dependent outcome variables (e.g. glucose, insulin, c-peptide, GLP-1, glucagon, insulin secretion index and sensitivity, IL-1p, IL-6, IL-8, TNFα), was done using linear mixed effect models fit by maximum likelihood. Analysis of the binary dependent outcome variables occurrence of severe hypoglycemia requiring glucose rescue and occurrence of composite score ≥6 on the Edinburgh Hypoglycemia Scale was done using a generalized linear additive mixed effect model fit by maximum likelihood (Laplace approximation). Models were fit including fixed effects for categorical variables such as gender, the occurrence of hypoglycemia, treatment and in case of values measured in cell culture supernatants, activation status (non-stimulated, LPS-simulated), as well as the continuous variables time and BMI as indicated. A random-effect for patient was equally included (random by-subject intercepts, fixed slopes). Models were computed using the R “Ime4” and “gamm4” packages. • Individual models were visually assessed for the presence of heteroscedasticity, collinearity and normality of residuals. […] For visual representation, log-transformed outcome values were back-transformed to their initial values.
Treatment effects are presented in Table 6 as mean effect size estimates with 95% CIs, test-statistics and multiple comparison adjusted p-values (=FDR values). • Missing values for insulin (n=1), GLP-1 (n=4) and glucagon (n=5) were assumed to be missing at random and imputed using multiple imputation with the R-package “mice”. Inferential statistical analyses were done using R version 3.5.2. Descriptive statistics were done with GraphPad Prism8 version 8.0.1(145). […]

Molecule	number of events (hypoglycemia requiring glucose rescue), estimate vs placebo [1]	glucose, estimate vs placebo [1]	severity of hypoglycemic events / events requiring rescue glucose administration [1]	glucose-requiring hypoglycaemic events (%) [1] [%]	changes of the glucose curve within the first 90 minutes ([1]; vs placebo)	insulin AUC, estimate vs placebo [2]	c-peptide, estimate vs placebo [2]	insulin, estimate vs placebo [2]	insulin secretion index, effect estimate vs placebo [2] [pmol/mmol]	Whole body insulin sensitivity index [2]	Insulin secretion index [2]	insulin secretion / insulin release and c-peptide secretion over time [2]	glycaemia 30 minutes after ingestion of the mixed meal ([1]; 30 min, 10 mg empagliflozin, the other value is placebo) [mmol/L]	glycaemia 60 minutes after ingestion of the mixed meal ([1]; 60 min, 10 mg empagliflozin, the other value is placebo) [mmol/L]	glycaemia 90 minutes after ingestion of the mixed meal ([1]; 90 min, 10 mg empagliflozin, the other value is placebo)	peak postprandial glucose levels ([1]; vs placebo)
anakinra: CAS NO 143090-92-0; recombinant, non-glycosylated form of the human interleukin-1 receptor antagonist (IL-1 Ra), 153 amino acids	−2.882	0.133	significantly reduced the severity of hypoglycemic events with only two events requiring rescue glucose administration	16.6	did not result in significant changes	−13.9	−0.0912	−0.266	−18.5	72.1	91.6	reduced				
OC[C@H]1O[C@@H](c2ccc(Cl)c(Cc3ccc(O[C@H]4CCOC4)cc3)c2)[C@H](O)[C@@H](O)[C@@H]1O [empagliflozin]	−2.882	−0.472	significantly reduced the severity of hypoglycemic events with only two events requiring rescue glucose administration	16.6		−19.32	−0.2237	−0.852	−10.8	84.6	99.2	reduced	10.1	6.9	3.5	reduced
